This is an account of results in patent US11279711B2, “Condensed heterocyclic derivates as BCL-2 inhibitors for the treatment of neoplastic diseases” (Newave Pharmaceutical Inc., priority 2017, dated 2022).

The target of one data set is Mcl-1 (Homo sapiens, UniProt Q07820). The settings on record: cited from earlier work.
A further data set has as its system CLL. The following applies: read-out: average EC50, apoptosis in CLL; cited from earlier work.
A further data set deals with MV411. The data set is described as follows: In vitro anti-proliferation assay (ATPlite), MV411. The following applies: Homo sapiens, MV4-11; 5% FBS, about 72 hours. Format: cell-based. As for the experimental part:
(§1) Biological Example 3: In Vitro Anti-Proliferation Assay in Small Cell Lung Cancer (SCLC) Cell Line
(§2) Cell antiproliferation was assayed by PerkinElmer ATPlite™ Luminescence Assay System. Briefly, the various test cancer cell lines were plated at a density of about 1×10^4 cells per well in Costar 96-well plates, and were incubated with different concentrations of compounds for about 72 hours in medium supplemented with 5% FBS. One lyophilized substrate solution vial was then reconstituted by adding 5 mL of substrate buffer solution, and was agitated gently until the solution was homogeneous. About 50 μL of mammalian cell lysis solution was added to 100 μL of cell suspension per well of a microplate, and the plate was shaken for about five minutes in an orbital shaker at ˜700 rpm. This procedure was used to lyse the cells and to stabilize the ATP. Next, 50 μL substrate solution was added to the wells and microplate was shaken for five minutes in an orbital shaker at ˜700 rpm. Finally, the luminescence was measured by a PerkinElmer TopCount® Microplate Scintillation Counter. Such assays, carried out with a range of doses of test compounds, allowed the determination of the cellular anti-antiproliferative IC50 of the compounds of the present invention.
Background: Cellular ATP, detected with luciferase, serves as a proxy for viable cell number.

Another data set deals with RS4;11 xenografts. The settings on record: single dose of 100 mg/kg; cited from earlier work.
The next data set deals with RS4;11 cells. The following applies: cited from earlier work.
For the next data set, the system named is Granta. Kind of data set: In vitro anti-proliferation assay (ATPlite), Granta. The following applies: 5% FBS, about 72 hours. The data set is classed as cell-based. As for the experimental part:
as §1, §2

For data set [1], the system named is BCL-2-dependent acute lymphoblastic leukemia (ALL) cell line RS4;11. Kind of data set: In vitro anti-proliferation assay (ATPlite) in RS4;11. Format: cell-based. The following applies: Homo sapiens; RS4;11, 5% FBS, about 72 hours; read-out: IC50, RS4; 115% FBS. As for the experimental part: Biological Example 2: In Vitro Anti-Proliferation Assay in BCL-2-Dependent Acute Lymphoblastic Leukemia (ALL) Cell Line RS4;11
as §2, with “with 5% FBS or 10% normal human serum (NHS). One lyophilized” for “with 5% FBS. One lyophilized”, “shaker at −700 rpm. This” for “shaker at ˜700 rpm. This”, “present invention. The following table lists the IC50 values of certain compounds of the invention.” for “present invention.”

A further data set has as its system Toledo. Kind of data set: In vitro anti-proliferation assay (ATPlite), Toledo. The data set is classed as cell-based. The settings on record: Homo sapiens, 5% FBS, about 72 hours. As for the experimental part: as §1, §2
Another data set relates to SCLC H146 cell line. The following applies: read-out: IC50 against SCLC H146 cell line; cited from earlier work.
Another data set deals with circulating platelets. The settings on record: clinical trial; dose-limiting thrombocytopenia; cited from earlier work.
The subject of a further data set is H345 xenograft. The settings on record: 100 mg/kg/day, H345 xenograft model; cited from earlier work.
Another data set addresses T1, Bcl-w (Homo sapiens, UniProt Q92843).
T1 sequence (Q92843 1-193): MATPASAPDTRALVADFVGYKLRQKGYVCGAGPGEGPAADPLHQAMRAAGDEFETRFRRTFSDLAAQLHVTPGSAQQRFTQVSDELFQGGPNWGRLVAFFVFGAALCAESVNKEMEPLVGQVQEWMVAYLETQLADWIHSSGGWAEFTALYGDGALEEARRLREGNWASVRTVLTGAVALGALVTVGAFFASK
The settings on record: cited from earlier work.

For another data set, the system named is H146. The data set is described as follows: In vitro anti-proliferation assay (ATPlite), small cell lung cancer cell line H146. Format: cell-based. The settings on record: 5% FBS, about 72 hours. As for the experimental part: as §1, §2
(§3) Cisplatin, the standard of Care of small cell lung cancer cell lines was used as the positive control drug.

The next data set has as its system H889. Kind of data set: In vitro anti-proliferation assay (ATPlite), small cell lung cancer cell line H889. The data set is classed as cell-based. The settings on record: 5% FBS, about 72 hours. As for the experimental part:
as §1, §2, §3

In data set [2] the test system is xenograft models of small-cell lung cancer and acute lymphoblastic leukemia. The settings on record: oral administration, alone; cited from earlier work.
The next data set relates to H1963. Kind of data set: In vitro anti-proliferation assay (ATPlite), small cell lung cancer cell line H1963. The data set is classed as cell-based. The following applies: 5% FBS, about 72 hours. As for the experimental part:
as §1, §2, §3

For data set [3] the following is noted: in vivo; cited from earlier work.
For data set [4] the following is noted: cited from earlier work.
Data set [5] can be described thus: Mice PK study, oral dosing. Format: in vivo. The following applies: CD-1 mouse, 10 mg/kg; for AUC(0-t) / bioavailability / half-life: plasma; for bioavailability: read-out: Bioavailabilty; for half-life: read-out: t ½ (converted). As to the method: Biological Example 4: Mice PK Study
The pharmacokinetics of compounds were evaluated in CD-1 mouse via Intravenous and Oral Administration. The IV dose was administered as a slow bolus in the Jugular vein, and oral doses were administered by gavage. The formulation for IV dosing was 5% DMSO in 20% HPBCD in water, and the PO formulation was 2.5% DMSO, 10% EtOH, 20% Cremphor EL, 67.5% D5W. The PK time point for the IV arm was 5, 15, 30 min, 1, 2, 4, 6, 8, 12, 24 hours post dose, and for PO arm was 15, 30 min, 1, 2, 4, 6, 8, 12, 24 hours post dose. Approximately 0.03 mL blood was collected at each time point. Blood of each sample was transferred into plastic micro centrifuge tubes containing EDTA-K2 and collect plasma within 15 min by centrifugation at 4000 g for 5 minutes in a 4° C. centrifuge. Plasma samples were stored in polypropylene tubes. The samples were stored in a freezer at −75±15° C. prior to analysis. Concentrations of compounds in the plasma samples were analyzed using a LC-MS/MS method. WinNonlin (Phoenix™, version 6.1) or other similar software was used for pharmacokinetic calculations. The following pharmacokinetic parameters were calculated, whenever possible from the plasma concentration versus time data: IV administration: C0, CL, Vd, T1/2, AUCinf, AUClast, MRT, Number of Points for Regression; PO administration: Cmax, Tmax, T1/2, AUCinf, AUClast, F %, Number of Points for Regression. The pharmacokinetic data was described using descriptive statistics such as mean, standard deviation. Additional pharmacokinetic or statistical analysis was performed at the discretion of the contributing scientist, and was documented in the data summary.

Sequence of Mcl-1 (Q07820 whole entry): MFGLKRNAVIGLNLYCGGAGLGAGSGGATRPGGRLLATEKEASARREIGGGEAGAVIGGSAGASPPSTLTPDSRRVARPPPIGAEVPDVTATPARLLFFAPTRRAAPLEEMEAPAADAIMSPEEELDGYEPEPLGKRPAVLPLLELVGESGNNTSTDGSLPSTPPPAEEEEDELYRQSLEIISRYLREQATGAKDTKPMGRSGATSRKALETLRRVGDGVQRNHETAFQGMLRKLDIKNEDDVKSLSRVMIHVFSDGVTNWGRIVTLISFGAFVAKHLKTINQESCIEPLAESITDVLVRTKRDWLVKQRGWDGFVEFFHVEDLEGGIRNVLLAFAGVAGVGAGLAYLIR

Broadly, the EC50 is the midpoint of the concentration-response curve. As a reminder, the IC50 is the concentration that gives 50% inhibition. On to `CC1(C)CCC(CN2CCN(c3ccc(C(=O)NS(=O)(=O)c4ccc(NCC5CCOCC5)c([N+](=O)[O-])c4)c(Oc4cnc5[nH]ccc5c4)c3)CC2)=C(c2ccc(Cl)cc2)C1` [ABT-199], for which the “activity to Mcl-1” value on Mcl-1 is reported as “no activity”. Also, the values for the EC50 in the data set on CLL and in the data set on RS4;11 cells were 3 nM and 8 nM, respectively. The IC50 was found to be 20.1 nM in the data set on MV411, 42.5 nM in the data set with Granta, 5.8 nM in data set [1] and 98.1 nM with Toledo. In addition, the “maximal tumor growth inhibition” value in the data set with RS4;11 xenografts is 95%. Moreover, in the data set on RS4;11 xenografts, the tumor growth delay was 152%.

Usually TGI stands for how far tumour growth fell short of that in controls. The term Ki denotes a measure of affinity in units of concentration, obtained from inhibition or displacement. Regarding `CC1(C)CCC(c2ccc(Cl)cc2)=C(CN2CCN(c3ccc(C(=O)NS(=O)(=O)c4ccc(N[C@H](CCN5CCOCC5)CSc5ccccc5)c(S(=O)(=O)C(F)(F)F)c4)cc3)CC2)C1` [ABT-263], the IC50 with SCLC H146 cell line was 110 nM; in the data set on H146 (Homo sapiens, NCI-H146) it was 28 nM; in the data set on H889 (Homo sapiens, NCI-H889), 32.4 nM; in the data set on H1963 (Homo sapiens, NCI-H1963), 41.7 nM. In the data set on circulating platelets, the “number of circulating platelets” value is given as “rapid, concentration-dependent decrease in the number of circulating platelets”. Also, the TGI in the data set on H345 xenograft is listed as 80%. Also, the “treated tumors indicating at least a 50% reduction in tumor volume” value with H345 xenograft is recorded as 20%. Besides, the Ki at Bcl-w is at most 1 nM. Besides, in [2], the tumor regression result is “complete tumor regressions”.

Consider `CN(C)CC[C@H](CSc1ccccc1)Nc1ccc(S(=O)(=O)NC(=O)c2ccc(N3CCN(Cc4ccccc4-c4ccc(Cl)cc4)CC3)cc2)cc1[N+](=O)[O-]` [ABT-737], for which the oral bioavailability result in data set [3] is listed as “not orally bioavailable”. Further, the aqueous solubility entry in data set [4] is “low aqueous solubility”.

On to `N.N.[Cl][Pt][Cl]` [Cisplatin, reference compound], for which the IC50 with H146 was 4590 nM; in the data set on H889, 7080 nM; in the data set with H1963, 1670 nM.

What is called AUC(0-t) is exposure summed from dosing to a finite time, without extrapolation to infinity. Low values mean less exposure, high ones more exposure. Take `CC1(C)CCC(CN2CCN(c3ccc(C(=O)NS(=O)(=O)c4ccc(NCC5CCOCC5)c([N+](=O)[O-])c4)c(N4CCCOc5nc6[nH]ccc6cc54)c3)CC2)=C(c2ccc(Cl)cc2)C1` [Example 2, 4-(4-((4′-chloro-5,5-dimethyl-3,4,5,6-tetrahydro-[1,1′-biphenyl]-2-yl)methyl)piperazin-1-yl)-2-(3,4-dihydro-2H-pyrrolo[3′,2′:5,6]pyrido[2,3-b][1,4]oxazepin-1(7H)-yl)-N-((3-nitro-4-(((tetrahydro-2H-pyran-4-yl)methyl)amino)phenyl)sulfonyl)benzamide]: the IC50 in the data set on H146 (Homo sapiens, NCI-H146) came to 64 nM; with H889 (Homo sapiens, NCI-H889) it was 1 nM; in the data set on MV411 it was 1.6 nM; in the data set on Granta it was 3.5 nM; in data set [1] it was 0.12 nM; in the data set on H1963 (Homo sapiens, NCI-H1963) it was 5.6 nM. The IC50 with Toledo is 8.1 nM. In addition, in [5], the AUC(0-t) turned out to be 9300 ng·h/mL. The bioavailability in data set [5] was found to be 49%. In addition, in data set [5], the half-life is 258 min.

In the case of `CC1(C)CCC(CN2CCN(c3ccc(C(=O)NS(=O)(=O)c4ccc(NCC5(F)CCOCC5)c([N+](=O)[O-])c4)c(N4CCCOc5nc6[nH]ccc6cc54)c3)CC2)=C(c2ccc(Cl)cc2)C1` [Example 3, 4-(4-((4′-chloro-5,5-dimethyl-3,4,5,6-tetrahydro-[1,1′-biphenyl]-2-yl)methyl)piperazin-1-yl)-2-(3,4-dihydro-2H-pyrrolo[3′,2′:5,6]pyrido[2,3-b][1,4]oxazepin-1(7H)-yl)-N-((4-(((4-fluorotetrahydro-2H-pyran-4-yl)methyl)amino)-3-nitrophenyl)sulfonyl)benzamide], the IC50 with H146 (Homo sapiens, NCI-H146) is 43 nM; in the data set with H889 (Homo sapiens, NCI-H889) it was 0.9 nM; in data set [1], below 0.1 nM; in the data set with H1963 (Homo sapiens, NCI-H1963), 4.2 nM. For the same compound, the AUC(0-t) in data set [5] stood at 4160 ng·h/mL. In data set [5], the bioavailability was 30%. Besides, the half-life in [5] is 156 min.

In the data set on H146, `CC1(C)CCC(CN2CCN(c3ccc(C(=O)NS(=O)(=O)c4ccc(NC[C@@H]5COCCO5)c([N+](=O)[O-])c4)c(N4CCCOc5nc6[nH]ccc6cc54)c3)CC2)=C(c2ccc(Cl)cc2)C1` [Example 8, 4-(4-[[2-(4-chlorophenyl)-4,4-dimethylcyclohex-1-en-1-yl]methyl]piperazin-1-yl)-N-[4-([[(2R)-1,4-dioxan-2-yl]methyl]amino)-3-nitrobenzenesulfonyl]-2-[14-oxa-2,4,10-triazatricyclo[7.5.0.0^[3,7]]tetradeca-1(9),2,5,7-tetraen-10-yl]benzamide] yielded an IC50 of 50 nM. In the data set with H889, this compound displayed an IC50 of 0.7 nM. In addition, in data set [5], the “AUClast(h * ng/mL)” value is recorded as 5,714 h * ng/mL, the Bioavailabilty is 44% and the “t ½” value came to 2.3 h. Moreover, in the data set on H1963, the IC50 was 5.3 nM.

For the compound `CC1(C)CCC(CN2CCN(c3ccc(C(=O)NS(=O)(=O)c4ccc(NC[C@H]5COCCO5)c([N+](=O)[O-])c4)c(N4CCCOc5nc6[nH]ccc6cc54)c3)CC2)=C(c2ccc(Cl)cc2)C1` [Example 9, 4-(4-[[2-(4-chlorophenyl)-4,4-dimethylcyclohex-1-en-1-yl]methyl]piperazin-1-yl)-N-[4-([[(2S)-1,4-dioxan-2-yl]methyl]amino)-3-nitrobenzenesulfonyl]-2-[14-oxa-2,4,10-triazatricyclo[7.5.0.0^[3,7]]tetradeca-1(9),2,5,7-tetraen-10-yl]benzamide], half-maximal inhibition in the data set with H146 (IC50) required 33 nM. In the data set on H889, this compound came in with an IC50 of 0.7 nM. For the same compound, in data set [5], the “AUClast(h * ng/mL)” value is reported as 8,168 h * ng/mL, the Bioavailabilty amounted to 64% and the “t ½” value came to 2.3 h. Besides, in the data set with H1963, inhibition was half-maximal at 4.7 nM (IC50).
